{"source": "patent US20080124410A1", "about": "“Use Of Lavender Oil For The Prophylaxis And Treatment Of Neurasthenia, Somatization Disorders And Other Stress-Associated Diseases” (priority 2004, published 2008)", "test_system": "rats", "test": "Forced Swimm Stress model, immobilization period", "format": "in vivo", "settings": "30 mg/kg perorally, once a day for nine days", "description": "The stress-reducing effects of lavender oil was tested in rats by the so-called “Forced Swimm Stress” model (R. D. Porsolt et al. (1978), Eur. J. Pharmacol. 47, 379-391). The stress reaction experimentally elicited by this test in rats is a recognized method for testing stress-induced behaviour. The principle of the test system used involves that rats being put into a water-filled glass cylinder which they can not leave independently, fall into a still state after a short period of swimming (immobilization period). This immobility is interpreted as a reaction to recognizing the hopelessness of the situation (cf. Example 2).\nIn order to test the stress-reducing effects of lavender oil, rats were treated over a period of nine days in total with differently high dosages of lavender oil according to European Pharmacopoeia, edition 4 (WS® 1265) once a day. For comparison purposes some animals were treated either with the tricyclic antidepressive agent imipramine used in stress therapy or with a control solution without an active ingredient. On the seventh day of the treatment, the animals were placed into the water-filled glass cylinder for 15 minutes for familiarization purposes. At the final day of the treatment, the animals were placed into the graduated cylinder again for a period of 5 minutes and the period of immobility was measured as a measure of the stress reaction."}
{"molecule": "CN(C)CCCN1c2ccccc2CCc2ccccc21", "note": "[imipramine]", "values": [{"measurement": "immobilization period", "value": "48 ± 6", "unit": "s"}, {"measurement": "inhibition", "setting": "versus control", "value": 67, "unit": "%"}]}
